From patent US9334263B2, “Compositions useful for treating disorders related to kit” (BLUEPRINT MEDICINES CORPORATION, priority 2013, dated 2016)

Legend:
D816V Kit = molecular target: T1, D816V Kit (Homo sapiens, UniProt P10721, D816V); test: Kit D816V assay at Km (Caliper electrophoretic mobility shift); assay type: biochemical; details: 15 uM ATP, 25 C, 90 minutes
T1 construct: purchased Carna Bioscience 08-156
Protocol: In order to assess the activity of chemical compounds against the relevant kinase of interest, the Caliper LifeSciences electrophoretic mobility shift technology platform is used. Fluorescently labeled substrate peptide is incubated in the presence of kinase and ATP so that a […] proportion of the peptide is phosphorylated. At the end of the reaction, the mix of phosphorylated (product) and non-phosphorylated (substrate) peptides are passed through the microfluidic system of the Caliper EZ Reader 2, under an applied potential difference. The presence of the phosphate group on the product peptide provides a difference in mass and charge between those of the substrate peptide, resulting in a separation of the substrate and product pools in the sample. As the pools pass a LEDS within the instrument, these pools are detected and resolved as separate peaks. The ratio between these peaks therefore reflects the activity of the chemical matter at that concentration in that well, under those conditions.
The reaction was stopped by the addition of 70 ul of Stop buffer (100 mM HEPES pH 7.5, 0.015% Brij 35, 35 mM EDTA and 0.2% of Coating Reagent 3 (Caliper Lifesciences)). The plate was then read on a Caliper EZReader 2 (protocol settings: −1.9 psi, upstream voltage −700, downstream voltage −3000, post sample sip 35 s).

[1] = molecular target: T2, Kit D816V (HMC1.2 cells, Kit V560G and D816V) (Homo sapiens, UniProt P10721, D816V/V560G); test: HMC1.2 autophosphorylation assay (AlphaLISA, phospho-Y719 c-Kit); assay type: cell-based; details: Kit autophosphorylation at tyrosine 719, 90 minutes, read-out: Cellular Activity
T2 construct: endogenous in cells; host or cells: HMC1.2 cells
Protocol: HMC1.2 Autophosphorylation Assay:
10,000 HMC1.2 cells were incubated in 22 ul culture media (phenol-red free IMDM, no serum) in each well of a 384-well plate and serum starved overnight in a tissue culture incubator (5% CO2, 37° C.). A 10-point dose concentration series of compound (25 uM-95.4 pM) were then added to the cells in a volume of 3.1 ul to each well (0.25% DMSO final concentration). After 90 minutes, 6 ul of 5× AlphaLISA Lysis Buffer (Perkin Elmer) supplemented with a protease and phosphatase inhibitor cocktail (Cell Signaling Technologies) was added to each well and shaken at 450 rpm for 15 minutes at 4° C. 10 ul of phospho-Y719 c-Kit and total c-Kit antibodies (15 nM final concentration, Cell Signaling Technologies) and 50 ug/ml AlphaLISA rabbit acceptor beads (Perkin Elmer) were added to each well and shaken at 300 rpm at room temperature for 2 hours. 10 ul of 100 ug/ml streptavidin donor beads (Perkin Elmer) were added to each well, blocked from light with aluminum adhesive and shaken at 300 rpm at room temperature for 2 hours. Fluorescence signal was obtained on Envision (Perkin Elmer) by AlphaScreen 384 well HTS protocol.
This cell line contains Kit mutated at positions V560G and D816V resulting in constitutive activation of the kinase. The following compounds were tested in an assay to measure direct inhibition of Kit D816V kinase activity by assaying Kit autophosphorylation at tyrosine 719 on the Kit protein.

T2 sequence (P10721 26-976 V560G/D816V): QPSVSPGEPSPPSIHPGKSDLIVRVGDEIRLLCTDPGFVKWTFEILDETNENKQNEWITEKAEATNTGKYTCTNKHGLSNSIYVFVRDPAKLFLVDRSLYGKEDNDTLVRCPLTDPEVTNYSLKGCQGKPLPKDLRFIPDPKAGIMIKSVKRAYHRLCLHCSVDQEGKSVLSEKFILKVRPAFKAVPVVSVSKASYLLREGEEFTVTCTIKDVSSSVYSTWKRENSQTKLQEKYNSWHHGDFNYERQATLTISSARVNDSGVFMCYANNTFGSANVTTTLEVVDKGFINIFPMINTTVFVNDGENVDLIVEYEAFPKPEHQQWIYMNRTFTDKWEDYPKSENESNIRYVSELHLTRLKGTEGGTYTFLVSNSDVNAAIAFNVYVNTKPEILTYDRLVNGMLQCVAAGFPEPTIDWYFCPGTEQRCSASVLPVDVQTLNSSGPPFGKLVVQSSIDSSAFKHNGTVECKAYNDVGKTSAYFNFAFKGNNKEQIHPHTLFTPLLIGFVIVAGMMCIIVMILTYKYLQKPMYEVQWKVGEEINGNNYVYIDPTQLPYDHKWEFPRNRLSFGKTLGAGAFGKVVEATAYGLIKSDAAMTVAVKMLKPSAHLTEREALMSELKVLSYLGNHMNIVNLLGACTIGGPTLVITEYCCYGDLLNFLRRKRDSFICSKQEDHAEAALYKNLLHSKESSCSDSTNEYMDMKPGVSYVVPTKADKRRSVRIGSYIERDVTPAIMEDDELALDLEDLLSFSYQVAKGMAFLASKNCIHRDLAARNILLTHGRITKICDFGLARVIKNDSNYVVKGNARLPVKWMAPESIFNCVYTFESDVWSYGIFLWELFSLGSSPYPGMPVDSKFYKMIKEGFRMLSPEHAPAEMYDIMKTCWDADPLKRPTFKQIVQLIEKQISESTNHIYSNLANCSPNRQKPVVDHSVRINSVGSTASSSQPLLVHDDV
T1 sequence (P10721 26-976 D816V): as the sequence (P10721 26-976 V560G/D816V) above, with G535V counted along it

IC50 (D816V Kit) [nM] | IC50 [1] [nM] | SMILES
1.01 to 10 | 10 to 100 | Cc1nn(C2COC2)cc1Nc1ncnc(N2CCN(c3ncc(Sc4ccccc4F)cn3)CC2)n1 [Compound 146]
1.01 to 10 | 100 to 1000 | Cc1c(Nc2ncnc(N3CCN(c4ncc(Sc5ccccc5F)cn4)CC3)n2)cnn1C1COC1 [Compound 147]
1.01 to 10 | 10 to 100 | CC(C)(O)Cn1cc(Nc2ncnc(N3CCN(c4ncc(Sc5ccccc5F)cn4)CC3)n2)cn1 [Compound 150]
1.01 to 10 | 10 to 100 | Cc1c(Nc2ncnc(N3CCN(c4ncc(Sc5ccc(F)cc5)cn4)CC3)n2)cnn1C[C@H](C)O [Compound 151]
< 1 | < 10 | Cc1nn(C[C@H](C)O)cc1Nc1ncnc(N2CCN(c3ncc(Sc4ccc(F)cc4)cn3)CC2)n1 [Compound 152]
< 1 | 10 to 100 | Cc1nn(C[C@H](C)O)cc1Nc1ncnc(N2CCN(c3ncc(Sc4ccccc4F)cn3)CC2)n1 [Compound 153]
1.01 to 10 | 10 to 100 | Cc1c(Nc2ncnc(N3CCN(c4ncc(Sc5ccccc5F)cn4)CC3)n2)cnn1C[C@H](C)O [Compound 154]
1.01 to 10 | 10 to 100 | OC1(c2ccc(Nc3ncnc(N4CCN(c5ncc(Cc6ccccc6)cn5)CC4)n3)cc2)CCCCC1 [Compound 155]
1.01 to 10 | 10 to 100 | c1ccc(Cc2cnc(N3CCN(c4ncnc(Nc5ccc(O[C@H]6CCCNC6)nc5)n4)CC3)nc2)cc1 [Compound 171]
< 1 | 10 to 100 | CC1(C(O)c2ccc(Nc3ncnc(N4CCN(c5ncc(Cc6ccccc6)cn5)CC4)n3)cc2)COC1 (centres unmarked) [Compound 172]
1.01 to 10 | 10 to 100 | C=C(c1ccccc1)c1cnc(N2CCN(c3ncnc(Nc4cnn(C[C@@H]5CNCCO5)c4)n3)CC2)nc1 [Compound 173]
1.01 to 10 | 1000 to 10000 | Fc1cc(N2CCNCC2)ccc1Nc1ncnc(N2CCN(c3ncc(Cc4ccccc4)cn3)CC2)n1 [Compound 175]
1.01 to 10 | 10 to 100 | CN1CCNC[C@H]1Cn1cc(Nc2ncnc(N3CCN(c4ncc(Cc5ccccc5)cn4)CC3)n2)cn1 [Compound 176]
1.01 to 10 | 10 to 100 | CN1CCNC[C@@H]1Cn1cc(Nc2ncnc(N3CCN(c4ncc(Cc5ccccc5)cn4)CC3)n2)cn1 [Compound 177]
1.01 to 10 | 100 to 1000 | O=C(c1ccccc1)c1cnc(N2CCN(c3ncnc(Nc4cnn(CC5CNCCO5)c4)n3)CC2)nc1 (centres unmarked) [Compound 178]
1.01 to 10 | 10 to 100 | C[C@@H]1CN(c2ncnc(Nc3cnn(C[C@@H]4CNCCO4)c3)n2)CCN1c1ncc(Cc2ccccc2)cn1 [Compound 183]
1.01 to 10 | 10 to 100 | Cc1nn(C[C@@H]2CNCCO2)cc1Nc1ncnc(N2CCN(c3ncc(Cc4ccccc4)cn3)CC2)n1 [Compound 184]
1.01 to 10 | 10 to 100 | Cc1c(Nc2ncnc(N3CCN(c4ncc(Cc5ccccc5)cn4)CC3)n2)cnn1C[C@@H]1CNCCO1 [Compound 185]
< 1 | 10 to 100 | C[C@H](c1ccccc1)c1cnc(N2CCN(c3ncnc(Nc4cnn(C[C@@H]5CNCCO5)c4)n3)CC2)nc1 [Compound 186, N-(1-((S)-morpholin-2-ylmethyl)-1H-pyrazol-4-yl)-4-(4-(5-((R)-1-phenylethyl)pyrimidin-2-yl)piperazin-1-yl)-1,3,5-triazin-2-amine]

Further lines, the molecule ahead of its results:

SMILES | IC50 (D816V Kit) [nM] | IC50 [1] [nM]
C[C@H](O)Cn1cc(Nc2ncnc(N3CCN(c4ncc(Sc5ccccc5F)cn4)CC3)n2)cn1 [Compound 100] | < 1 | 10 to 100
c1ccc(Cc2cnc(N3CCN(c4ncnc(Nc5ccc(O[C@@H]6CCNC6)cc5)n4)CC3)nc2)cc1 [Compound 107] | < 1 | 10 to 100
c1ccc(Cc2cnc(N3CCN(c4ncnc(Nc5ccc(O[C@H]6CCNC6)cc5)n4)CC3)nc2)cc1 [Compound 108] | < 1 | 10 to 100
OCc1ccccc1Cc1cnc(N2CCN(c3ncnc(Nc4ccc5c(c4)CNCC5)n3)CC2)nc1 [Compound 109] | < 1 | < 10
OCc1nc(N2CCN(c3ncnc(Nc4ccc5c(c4)CNCC5)n3)CC2)ncc1Cc1ccccc1 [Compound 110] | < 1 | 10 to 100
O[C@@H]1CCN(c2ccc(Nc3ncnc(N4CCN(c5ncc(Cc6ccccc6)cn5)CC4)n3)cc2)C1 [Compound 111] | 1.01 to 10 | 10 to 100
O[C@H]1CCN(c2ccc(Nc3ncnc(N4CCN(c5ncc(Cc6ccccc6)cn5)CC4)n3)cc2)C1 [Compound 112] | 1.01 to 10 | 100 to 1000
COc1ccccc1Cc1cnc(N2CCN(c3ncnc(Nc4ccc5c(c4)CNCC5)n3)CC2)nc1 [Compound 113] | 1.01 to 10 | 100 to 1000
CC(C)(c1ccccc1)c1cnc(N2CCN(c3ncnc(Nc4ccc([C@H](O)CO)cc4)n3)CC2)nc1 [Compound 119] | < 1 | < 10
CC(C)(c1ccccc1)c1cnc(N2CCN(c3ncnc(Nc4ccc([C@@H](O)CO)cc4)n3)CC2)nc1 [Compound 120] | < 1 | 10 to 100
CC(C)(O)[C@H](O)c1ccc(Nc2ncnc(N3CCN(c4ncc(Cc5ccccc5)cn4)CC3)n2)cc1 [Compound 121] | < 1 | 10 to 100
CC(C)(O)[C@@H](O)c1ccc(Nc2ncnc(N3CCN(c4ncc(Cc5ccccc5)cn4)CC3)n2)cc1 [Compound 122] | < 1 | 10 to 100
c1ccc(Cc2cnc(N3CCN(c4ncnc(Nc5cnn(C[C@H]6COCCN6)c5)n4)CC3)nc2)cc1 [Compound 125] | < 1 | 10 to 100
c1ccc(Cc2cnc(N3CCN(c4ncnc(Nc5cnn(C[C@@H]6COCCN6)c5)n4)CC3)nc2)cc1 [Compound 126] | 1.01 to 10 | 100 to 1000
OC[C@@H](O)COc1ccc(Nc2ncnc(N3CCN(c4ncc(Cc5ccccc5)cn4)CC3)n2)cc1 [Compound 129] | 1.01 to 10 | 10 to 100
OC[C@@H](O)COc1cccc(Nc2ncnc(N3CCN(c4ncc(Cc5ccccc5)cn4)CC3)n2)c1 [Compound 130] | 1.01 to 10 | 10 to 100
OC[C@H](O)COc1ccc(Nc2ncnc(N3CCN(c4ncc(Cc5ccccc5)cn4)CC3)n2)cc1 [Compound 131] | 1.01 to 10 | 10 to 100
OC[C@H](O)COc1cccc(Nc2ncnc(N3CCN(c4ncc(Cc5ccccc5)cn4)CC3)n2)c1 [Compound 132] | < 1 | 10 to 100
c1ccc(Cc2cnc(N3CCN(c4ncnc(Nc5cnn(C[C@H]6COCCO6)c5)n4)CC3)nc2)cc1 [Compound 133] | < 1 | 10 to 100
c1ccc(Cc2cnc(N3CCN(c4ncnc(Nc5cnn(C[C@@H]6COCCO6)c5)n4)CC3)nc2)cc1 [Compound 134] | < 1 | 10 to 100
c1ccc(Nc2cnc(N3CCN(c4ncnc(Nc5cnn(C[C@@H]6CNCCO6)c5)n4)CC3)nc2)cc1 [Compound 135] | 1.01 to 10 | 10 to 100
Fc1cccc(F)c1Cc1cnc(N2CCN(c3ncnc(Nc4ccc5c(c4)CNCC5)n3)CC2)nc1 [Compound 136] | 1.01 to 10 | 100 to 1000
Fc1cccc(Cc2cnc(N3CCN(c4ncnc(Nc5ccc6c(c5)CNCC6)n4)CC3)nc2)c1F [Compound 137] | 1.01 to 10 | 10 to 100
Fc1ccc(Cc2cnc(N3CCN(c4ncnc(Nc5ccc6c(c5)CNCC6)n4)CC3)nc2)c(F)c1 [Compound 138] | < 1 | 10 to 100
Fc1ccc(Cc2cnc(N3CCN(c4ncnc(Nc5ccc6c(c5)CNCC6)n4)CC3)nc2)cc1F [Compound 139] | 1.01 to 10 | 10 to 100
[2H]C([2H])(c1ccccc1)c1cnc(N2CCN(c3ncnc(Nc4cnn(C[C@@H]5CNCCO5)c4)n3)CC2)nc1 [Compound 141] | 1.01 to 10 | 10 to 100
c1ccc(Cc2cnc(N3CCN(c4ncnc(Nc5ccc6c(c5)CN(C5CC5)CC6)n4)CC3)nc2)cc1 [Compound 145] | 10 to 100 | 10 to 100
